Measurements published in article PMC7980952 (Clinical cancer research : an official journal of the …, 2019).
Entries after “also recorded” stand apart in the source; their conditions may differ. Like-named read-outs stand apart in the source and are kept apart here.

What was measured:
[1] = system: IDO; conditions: ref Siu et al. 2017; cited from earlier work
[2] = Navoximod plasma pharmacokinetics; type: in vivo, human; conditions: for PK profile (linearity, dose proportionality): 50–1000 mg BID oral, with atezolizumab; for Tmax: human, plasma, po, 50–1000 mg BID
[3] = system: locally advanced or metastatic solid tumors; assay: Tumor response by investigators per RECIST v1.1; type: in vivo, human; conditions: with atezolizumab; for ORR in IDO1 0 patients / ORR in PDL1 0 patients / ORR in PDL1 IHC 1/2/3 patients / ORR in IDO1 IHC 1/2/3 patients / ORR in all patients: expansion
[4] = system: IDO1; assay: Plasma Kyn as peripheral biomarker of IDO1 activity; type: in vivo, human
[5] = in vivo
[6] = system: preclinical tumor models; conditions: combination with anti-PD-L1 vs single agents; ref Spahn et al. 2015; cited from earlier work
[7] = system: solid tumors; conditions: ref Nayak et al. 2018, cited from earlier work
[8] = Phase Ib safety assessments: adverse events; conditions: in combination with atezolizumab
[9] = system: melanoma; conditions: ref Long et al. 2018, cited from earlier work
[10] = Phase 1a, 22 patients with solid tumors

Compound: C[C@@H](C(=O)Nc1ccc(Cl)cc1)C1CCC(c2ccnc3ccc(F)cc23)CC1 (some centres unmarked) [BMS-986205]
- In vitro potency compared with epacadostat and navoximod [1]: greater in vitro potency

Compound: O[C@H](C[C@H]1c2c(F)cccc2-c2cncn21)[C@H]1CC[C@H](O)CC1 [Navoximod]
- PK profile (linearity, dose proportionality) [2]: linear PK profile; also recorded: dose-proportional and linear PK
- PK profile (linearity, dose proportionality) ([2]; listed as navoximod): dose-proportional and linear PK profile
- Tmax ([2]; Tmax range): 0.25 to 4 h
- Tmax ([2]; median Tmax): ~1 h
- PK in combination with atezolizumab compared with single agent ([2]; in vivo): consistent with single-agent PK observations
- Partial response (PR), best overall response ([3]; dose escalation, all patients (n=66)): 9%
- ORR in IDO1 0 patients ([3]; All Patients, n=19): 0 (0%) Responders (%)
- ORR in PDL1 0 patients ([3]; All Patients, n=27): 0 (0%) Responders (%)
- ORR in PDL1 IHC 1/2/3 patients ([3]; All Patients, n=60): 9 (15%) Responders (%)
- ORR in IDO1 IHC 1/2/3 patients ([3]; All Patients, n=68): 9 (13%) Responders (%)
- ORR in all patients ([3]; All Patients, n=91): 10 (11%) Responders (%)
- ORR in IDO1 0 patients ([3]; Biopsy A (CIT naïve), n=3): 0 (0%) Responders (%)
- ORR in PDL1 0 patients ([3]; Biopsy A (CIT naïve), n=5): 0 (0%) Responders (%)
- ORR in PDL1 IHC 1/2/3 patients ([3]; Biopsy A (CIT naïve), n=6): 0 (0%) Responders (%)
- ORR in IDO1 IHC 1/2/3 patients ([3]; Biopsy A (CIT naïve), n=8): 0 (0%) Responders (%)
- ORR in all patients ([3]; Biopsy A (CIT naïve), n=11): 0 (0%) Responders (%)
- ORR in IDO1 0 patients ([3]; Biopsy B (CIT naïve), n=4): 0 (0%) Responders (%)
- ORR in PDL1 0 patients ([3]; Biopsy B (CIT naïve), n=4): 0 (0%) Responders (%)
- ORR in IDO1 IHC 1/2/3 patients ([3]; Biopsy B (CIT naïve), n=8): 1 (12%) Responders (%)
- ORR in PDL1 IHC 1/2/3 patients ([3]; Biopsy B (CIT naïve), n=8): 1 (12%) Responders (%)
- ORR in all patients ([3]; Biopsy B (CIT naïve), n=12): 1 (8%) Responders (%)
- ORR in IDO1 0 patients ([3]; NSCLC (CIT naïve), n=8): 0 (0%) Responders (%)
- ORR in PDL1 0 patients ([3]; NSCLC (CIT naïve), n=11): 0 (0%) Responders (%)
- ORR in PDL1 IHC 1/2/3 patients ([3]; NSCLC (CIT naïve), n=14): 2 (14%) Responders (%)
- ORR in IDO1 IHC 1/2/3 patients ([3]; NSCLC (CIT naïve), n=17): 2 (12%) Responders (%)
- ORR in all patients ([3]; NSCLC (CIT naïve), n=26): 2 (8%) Responders (%)
- ORR in IDO1 0 patients ([3]; NSCLC (relapsed), n=1): 0 (0%) Responders (%)
- ORR in PDL1 0 patients ([3]; NSCLC (relapsed), n=4): 0 (0%) Responders (%)
- ORR in PDL1 IHC 1/2/3 patients ([3]; NSCLC (relapsed), n=11): 0 (0%) Responders (%)
- ORR in IDO1 IHC 1/2/3 patients ([3]; NSCLC (relapsed), n=14): 0 (0%) Responders (%)
- ORR in all patients ([3]; NSCLC (relapsed), n=16): 0 (0%) Responders (%)
- ORR in IDO1 0 patients ([3]; RCC (CIT naïve), n=0): 0 (0%) Responders (%)
- ORR in PDL1 0 patients ([3]; RCC (CIT naïve), n=0): 0 (0%) Responders (%)
- ORR in IDO1 IHC 1/2/3 patients ([3]; RCC (CIT naïve), n=7): 3 (43%) Responders (%)
- ORR in PDL1 IHC 1/2/3 patients ([3]; RCC (CIT naïve), n=7): 3 (43%) Responders (%)
- ORR in all patients ([3]; RCC (CIT naïve), n=7): 3 (43%) Responders (%)
- ORR in IDO1 0 patients ([3]; TNBC (CIT naïve), n=3): 0 (0%) Responders (%)
- ORR in PDL1 0 patients ([3]; TNBC (CIT naïve), n=3): 0 (0%) Responders (%)
- ORR in IDO1 IHC 1/2/3 patients ([3]; TNBC (CIT naïve), n=8): 1 (12%) Responders (%)
- ORR in PDL1 IHC 1/2/3 patients ([3]; TNBC (CIT naïve), n=8): 1 (12%) Responders (%)
- ORR in all patients ([3]; TNBC (CIT naïve), n=11): 1 (9%) Responders (%)
- ORR in IDO1 0 patients ([3]; UBC (CIT naïve), n=0): 0 (0%) Responders (%)
- ORR in PDL1 0 patients ([3]; UBC (CIT naïve), n=0): 0 (0%) Responders (%)
- ORR in IDO1 IHC 1/2/3 patients ([3]; UBC (CIT naïve), n=6): 2 (33%) Responders (%)
- ORR in PDL1 IHC 1/2/3 patients ([3]; UBC (CIT naïve), n=6): 2 (33%) Responders (%)
- ORR in all patients ([3]; UBC (CIT naïve), n=8): 3 (38%) Responders (%)
- Mean change in plasma Kyn from the pre-dose baseline ([4]; patients receiving at least 200 mg navoximod): decreased at all post-dose timepoints beyond 1 hour
- Change in plasma Kyn ([4]; relative to Cycle 1 Day 1 pre-dose levels): generally decreased with increasing doses
- Chromaturia, treatment-related AE ([5]; human): 20%
- Discontinuations due to treatment related AEs ([5]; human): 9%
- Fatigue, treatment-related AE ([5]; human): 22%
- Grade ≥ 3 treatment-related AEs ([5]; human): 22%
- Grade ≥ 3 treatment-related rash ([5]; human): 9%
- Patients who discontinued treatment due to rash ([5]; human): 4%
- Pink colored urine (chromaturia) ([5]; human): up to 20%
- Rash overall ([5]; human): around 20%
- Rash, treatment-related AE ([5]; human): 22%
- Treatment related serious AEs ([5]; human): 10%
- Relationship between dose and incidence or severity of AEs [5]: no clear relationship
- Tolerability of the combination [5]: generally well-tolerated
- Activation of intratumoral CD8+ T cells and tumor growth inhibition [6]: more effectively activates intratumoral CD8+ T cells and inhibits tumor growth compared to either single agent alone
- Clinical activity as a single agent [7, 10]: limited clinical activity
- Tolerability as a single agent [7, 10]: generally well-tolerated
- Hepatic adverse events, single agent [7]: Hepatic adverse events had been reported
- MTD [8]: not reached; also recorded: not identified; also recorded: No MTD was defined

Compound: NS(=O)(=O)NCCNc1nonc1C(=NO)Nc1ccc(F)c(Br)c1 [epacadostat]
- mPFS ([9]; epacadostat in combination with pembrolizumab): 4.7 mo.

Compound: pembrolizumab
- mPFS ([9]; pembrolizumab monotherapy): 4.9 mo.
